According to ChEMBL document CHEMBL6103573, “Discovery of novel thienopyridine indole derivatives as inhibitors of tubulin polymerization targeting the colchicine-binding site with potent anticancer activities” (Eur J Med Chem, 2025):

Tests used:
[1] = system: MGC-803; assay: Antiproliferative activity against human MGC-803 cells assessed as inhibition of cell proliferation incubated for 48 hrs by MTT assay; assay type: functional, cell-based; conditions: MGC-803, 48 h
[2] = system: KYSE-450; assay: Antiproliferative activity against human KYSE-450 cells assessed as inhibition of cell proliferation incubated for 48 hrs by MTT assay; assay type: functional, cell-based; conditions: KYSE-450, 48 h
[3] = system: HCT-116; assay: Antiproliferative activity against human HCT-116 cells assessed as inhibition of cell proliferation incubated for 48 hrs by MTT assay; assay type: functional, cell-based; conditions: HCT-116, 48 h
[4] = target: Tubulin (Homo sapiens) (UniProt P68371+Q9H4B7+P0DPH7+P68366+Q13509+Q71U36+P04350+Q3ZCM7+P07437+P68363+Q9BQE3+Q6PEY2+Q13885+Q9BVA1+Q9BUF5); assay: Inhibition of tubulin (unknown origin) polymerization assessed as decrease in fluorescence intensity at 3 micromol/L in the presence of GTP by fluorescence microplate reader; assay type: protein-complex assay; conditions: dose 3.0 µmol/L
[5] = system: MGC-803; assay: Antitumor activity against human MGC-803 cells xenografted in female BALB/c-nu nude mouse assessed as tumor inhibition rate at 20 mg/kg, ip administrated every other day for 11 times and measured after 21 days relative to control; assay type: functional; conditions: MGC-803, 504 h, time 21 day, read-out: TGI

Row | Compound | IC50 [1] | IC50 [2] | IC50 [3] | inhibition [4] | inhibition in vivo at 20 mg/kg [5]
1 | CN(c1ccc2c(ccn2C)c1)c1nc(N2CCC2)nc2sccc12 | 12.3 nM | 16.1 nM | 18.2 nM |  | 
2 | Cn1ccc2cc(Nc3nc(Cl)nc4sccc34)ccc21 | > 5000 nM | > 5000 nM | > 5000 nM |  | 
3 | CN(c1ccc2c(ccn2C)c1)c1nc(N2CCOCC2)nc2sccc12 | 70.7 nM | 56.4 nM | 60.2 nM |  | 
4 | CN(c1ccc2[nH]ccc2c1)c1nc(Cl)nc2sccc12 | 4.23 nM | 5.12 nM | 7.28 nM |  | 
5 | CC(=O)N1CCN(c2nc(N(C)c3ccc4c(ccn4C)c3)c3ccsc3n2)CC1 | 308 nM | 413 nM | 487 nM |  | 
6 | CC(C)(C)OC(=O)n1ccc2cc(Nc3nc(Cl)nc4sccc34)ccc21 | > 5000 nM | > 5000 nM | > 5000 nM |  | 
7 | COc1cc2c(c(OC)c1OC)-c1ccc(OC)c(=O)cc1[C@@H](NC(C)=O)CC2 [COLCHICINE] | 44.1 nM | 58.7 nM | 49.1 nM |  | 
8 | CC(=O)O[C@H]1C(=O)[C@@]2(C)[C@H]([C@H](OC(=O)c3ccccc3)[C@]3(O)C[C@H](OC(=O)[C@H](O)[C@@H](NC(=O)c4ccccc4)c4ccccc4)C(C)=C1C3(C)C)[C@]1(OC(C)=O)CO[C@@H]1C[C@@H]2O |  |  |  | Not active; Increase In Fluorescence Intensity Observed | 
9 | COc1ccc(/C=C\c2cc(OC)c(OC)c(OC)c2)cc1O [COMBRETASTATIN A4] | 6.29 nM | 5.11 nM | 7.38 nM |  | 27.1%
10 | CN(c1ccc2c(ccn2Cc2ccccc2)c1)c1nc(Cl)nc2sccc12 | 893 nM | 921 nM | 831 nM |  | 
11 | CN(c1ccc2c(ccn2C)c1)c1ncnc2ccsc12 | 8.94 nM | 34.6 nM | 17.6 nM |  | 
12 | Cn1ccc2cc(Nc3ncnc4sccc34)ccc21 | > 5000 nM | > 5000 nM | > 5000 nM |  | 
13 | CC1CCN(c2nc(N(C)c3ccc4c(ccn4C)c3)c3ccsc3n2)CC1 | 8.12 nM | 9.17 nM | 6.21 nM |  | 
14 | CN(c1ccc2c(ccn2C)c1)c1nc(N2CCC(Cl)CC2)nc2sccc12 | 18.3 nM | 25.6 nM | 29.3 nM |  | 
15 | CN(c1ccc2c(ccn2C)c1)c1ncnc2sccc12 | 5.32 nM | 25.1 nM | 5.12 nM |  | 
16 | CN(c1ccc2c(ccn2C(=O)OC(C)(C)C)c1)c1nc(Cl)nc2sccc12 | 253 nM | 152 nM | 282 nM |  | 

Row | Compound | IC50 [1] | IC50 [2] | IC50 [3] | inhibition [4] | inhibition in vivo at 20 mg/kg [5]
17 | CCCN(c1ccc2c(ccn2C)c1)c1nc(Cl)nc2sccc12 | 89.2 nM | 122 nM | 125 nM |  | 
18 | CN(c1ccc2c(ccn2C)c1)c1nc(N2CCSCC2)nc2sccc12 | 113 nM | 289 nM | 129 nM |  | 
19 | Cn1ccc2cc(Nc3nc(Cl)nc4ccsc34)ccc21 | > 5000 nM | > 5000 nM | > 5000 nM |  | 
20 | CN(c1ccc2c(ccn2C)c1)c1nc(N2CCC(O)CC2)nc2sccc12 | 20.6 nM | 30.1 nM | 19.6 nM |  | 
21 | CN(c1ccc2c(ccn2C)c1)c1nc(N2CCC(F)CC2)nc2sccc12 | 12.9 nM | 20.7 nM | 17.7 nM |  | 
22 | COC1CCN(c2nc(N(C)c3ccc4c(ccn4C)c3)c3ccsc3n2)CC1 | 6.81 nM | 8.33 nM | 6.77 nM |  | 
23 | CN1CCN(c2nc(N(C)c3ccc4c(ccn4C)c3)c3ccsc3n2)CC1 | 219 nM | 389 nM | 441 nM |  | 
24 | CCn1ccc2cc(N(C)c3nc(Cl)nc4sccc34)ccc21 | 40.2 nM | 39.8 nM | 54.2 nM |  | 
25 | Cn1ccc2cc(Nc3ncnc4ccsc34)ccc21 | > 5000 nM | > 5000 nM | > 5000 nM |  | 
26 | CCN(c1ccc2c(ccn2C)c1)c1nc(Cl)nc2sccc12 | 3.67 nM | 7.77 nM | 8.28 nM |  | 
27 | CN(c1ccc2c(ccn2C)c1)c1nc(N2CCN(C(=O)OC(C)(C)C)CC2)nc2sccc12 | 589 nM | 597 nM | 682 nM |  | 
28 | CN(c1ccc2c(ccn2C)c1)c1nc(N2CCCCC2)nc2sccc12 | 14.8 nM | 13.2 nM | 18.2 nM |  | 
29 | CN(c1ccc2c(ccn2C)c1)c1nc(Cl)nc2ccsc12 | 4.18 nM | 16.1 nM | 3.17 nM |  | 
30 | CCN1CCN(c2nc(N(C)c3ccc4c(ccn4C)c3)c3ccsc3n2)CC1 | 288 nM | 402 nM | 406 nM |  | 
31 | CN(c1ccc2c(ccn2C)c1)c1nc(N2CCC(C(=O)OC(C)(C)C)CC2)nc2sccc12 | 337 nM | 422 nM | 388 nM |  | 
32 | CN(c1ccc2c(ccn2C)c1)c1nc(Cl)nc2sccc12 | 2.07 nM | 3.28 nM | 2.79 nM |  | 
